A short description of the data set: Solubility test of PrdP2Phen by LC-MS analysis. The note with it: 1 mg in 1 mL of water, ultrasonic waves 5 minutes, filtrate analysed by LC-MS; one atmosphere, room temperature. In kind it is physicochemical. As to the method:
Next, a solubility test of PrdP2Phen was performed. Note that the solubility test was conducted at a pressure of one atmosphere at room temperature (RT).
In the LC-MS analysis, liquid chromatography (LC) separation was carried out with ACQUITY UPLC (manufactured by Waters Corporation), and MS analysis (mass spectrometry) was carried out with Xevo G2 Tof MS (manufactured by Waters Corporation). Acquity UPLC BEH C8 (2.1×100 mm, 1.7 μm) was used as a column for the LC separation. Acetonitrile was used for Mobile Phase A and a 0.1% aqueous solution of formic acid was used for Mobile Phase B. The injection amount of the sample was 5.0 μL. Note that in the analysis, the wavelength of a photodiode array detector was set to 263 nm±1 nm.
In a 5-mL sample bottle, 1 mg of PrdP2Phen was put and 1 mL of water was added thereto. This mixture was irradiated with ultrasonic waves for 5 minutes. This mixture was filtered through a membrane filter to remove the solid, and the resulting filtrate was diluted by five times with acetonitrile. The obtained solution was subjected to LC-MS analysis.

As to `c1cc(-c2ccc(N3CCCC3)cc2)c2ccc3c(-c4ccc(N5CCCC5)cc4)ccnc3c2n1` [PrdP2Phen, 4,7-bis[4-(1-pyrrolidinyl)phenyl]-1,10-phenanthroline], the solubility in water result is recorded as “extremely low solubility in water”.

For the origin of these results see patent publication US20250212681A1, “Light-Emitting Device” (Semiconductor Energy Laboratory Co., Ltd., priority 2023, published 2025).
